This is an account of results in patent US12661316B2, “Creatine and/or creatinine compositions and related methods” (ThermoLife International, LLC, priority 2018, dated 2026).

Data set [1] can be described thus: Human study: side effects, liver and kidney function (Example 7). Format: in vivo.
Data set [2] is described as follows: Chemical stability of creatine nitrate, creatine monohydrate and buffered creatine in pH 2.5 and pH 6.8 buffer. The settings on record: for degradation rate constant: about 10 mg/ml; for pH of samples, initial: start of 12 days; for pH of samples, final: within a period of 12 days. The procedure: The chemical stability of creatine nitrate (CN), creatine monohydrate (CM), and buffered creatine (BC) were examined under two different storage conditions: (1) 37° C. in pH 2.5 buffer and (2) 40° C. in pH 6.8 buffer. A concentration of about 10 mg/ml of CN, CM and BC were prepared in both pH 2.5 and pH 6.8 buffer and stored in stability chambers in screw capped bottles at 37° C. and 40° C., respectively.

The conditions of data set [3]: cited from earlier work; for creatine degraded: three days of storage at 25° C.
For data set [4] the following is noted: radiokinetic bioavailability study; cited from earlier work.
The conditions of data set [5]: with caffeine intake; cited from earlier work.
The test system of a further data set is human blood cells. As to conditions: addition of creatinine to human blood cells; cited from earlier work.
For data set [6] the following is noted: normal human volunteers who had ingested creatinine; cited from earlier work.
The conditions of data set [7]: dogs; cited from earlier work.
For data set [8] the following is noted: injection of creatinine; mice; cited from earlier work.
For data set [9] the following is noted: cited from earlier work.
The conditions of data set [10]: dosages up to 30 g for a few days; human subject; cited from earlier work.

Where two headings read alike, the source gives them in different places.

For the compound `CN(CC(=O)O)C(=N)N.O=[N+]([O-])O` [CN, creatine nitrate], the “negative side effects (side effect reporting questionnaire)” value in [1] (ten human volunteers, nine did not report any negative side effects) was “one subject reported gastrointestinal disturbances”. In [2] (37° C. in pH 2.5 buffer), the degradation rate constant was 0.075±0.001 per day. Further, in data set [2] (40° C. in pH 6.8 buffer), the degradation rate constant amounted to 0.115±0.001 per day; the “pH of samples, initial” value is on record as 2.83±0.01; the “pH of samples, final” value is 4.31±0.01.
Consider `CN(CC(=O)O)C(=N)N` [creatine], for which, in data set [3] (neutral pH (7.5 or 6.5)), the stability in solution result is on record as “relatively stable”. The creatine degraded was 21% in [3] (pH 3.5), 12% in [3] (pH 4.5) and 4% in data set [3] (pH 5.5). In addition, in data set [4], the creatine bioavailability result is “sharply reduced with increasing doses”. Further, the “ergogenic effect on muscle” value in [5] is recorded as “completely eliminated”.
As for `CN1CC(=O)NC1=N` [creatinine], the spontaneous hemolysis result in the data set on human blood cells is reported as “significant increase in spontaneous hemolysis”. The red cell lysis entry in data set [6] is on record as “same red cell lysing pattern”. In addition, in data set [7], the erythrocyte survival time result is listed as “significant decrease”. Besides, the behavioural effect entry in data set [8] is “sedating or stupefying effect”.
Turning to `CN(CC(=O)O)C(=N)N.O` [CM, creatine monohydrate], the “negative side effects (side effect reporting questionnaire)” value in data set [1] (in vivo) is reported as “one subject reported gastrointestinal disturbances”. In addition, the degradation in solution entry in data set [9] (refrigerated) is on record as “slowed the rate of degradation”. For the same compound, in [9] (stored at room temperature), the degradation in solution result was “degraded into creatinine within several days”. For the same compound, in [2] (37° C. in pH 2.5 buffer), the “pH of samples, initial” value was 3.08±0.01 and the “pH of samples, final” value amounted to 4.12±0.01. The “increase of total creatine content in skeletal muscles” value in data set [10] was “more than 20%”.
